Measured values from publication PMC11403612, “Preparation and Preclinical Characterization of a Simple Ester for Dual Exogenous Supply of Lactate and Beta-hydroxybutyrate” (Journal of Agricultural and Food Chemistry, 2024).

Tests used:
[1] = Stability of LaKe in plasma, human; type: in vitro ADME; settings: thawed); human plasma (frozen)
Protocol: The in vitro stability of LaKe was evaluated following incubation in simulated gastric fluid (SGF), simulated intestinal fluid (SIF), fresh and frozen plasma (rats and humans, respectively), and the presence of hepatocytes (rats and humans) and liver microsomes (rats and humans). At the chosen time points, the mixtures were analyzed by LC-MS/MS to quantify the remaining LaKe and all assays included at least one control compound with known pharmacokinetic properties. […]
centrifuged at 4000 rpm, 4℃ for 20 min. 60 μL of supernatant was mixed with 180 μL of purified water for subsequent LC/MS/MS analysis.
LC-MS/MS Condition: ACQUITY UPLC BEH C18 1.7um 2.1 * 50mm Column (Part No.186002350). Mobile phase: A: 0.1% Formic Acid in Water; B: 0.1% Formic Acid in ACN.
Stability of LaKe in simulated intestinal fluid (SIF)
Preparation of SIF-solution: 0.136 g KH2PO4 and 0.064 g pancreatin was dissolved H2O to a total volume of solution 20 mL. The pH of the test solution was adjusted to 6.80 ± 0.05.
Procedure: 2 μL of a 10mg/ml working solution of LaKe in DMSO was spiked into 96-deep-well plates corresponding to timepoints T0, T60, T120, T360 and T1440. Experiments were performed in duplicate. 198 μL of SIF solution was then transferred to the individual wells (except T0) to reach 0.1mg/ml as the final test concentration for each time point (60, 120, 360, 1440 minutes). […]

[2] = Hepatocyte stability of LaKe, human; type: in vitro ADME; settings: cryopreserved hepatocytes
[3] = Stability of LaKe upon storage (neat, GC-FID); type: physicochemical; settings: ambient temperature
Protocol: Following preparation, LaKe was analyzed by GC-FID. Subsequently, LaKe was stored neat at either −15, 0, and 20 °C and the samples were reanalyzed after 24 months. Table S1 (Supporting Information) contains the corresponding stability data and the GC-FID conditions applied.

rats = test: Behaviour and tolerability observations in extended pharmacokinetics study; type: in vivo
Protocol: Animals (SD rats, both male and female, 7–9 weeks) were individually housed from 24 h before dosing until the end of the study. Food was withdrawn the night before initiation of study; following food withdrawal, animals were maintained on glucose water containing 5% w/v glucose and 1% saline to suppress endogenous ketone production throughout the study. Food was returned 8 h post-test article dosing. Animals were monitored for distress or notable changes in behavior during the study. The animals were euthanized by CO2 inhalation 2 h after the last sample collection time point.

With `CC(O)CCOC(=O)C(C)O` (stereo not shown) [LaKe, 3-hydroxybutyl 2-hydroxypropanoate] the half-life at 2 µM [1] was under 30 min, the half-life at 0.1 mg/mL [2] was under 30 min and the “stability to storage in the neat state” value [3] was “at least 2 years”. For the same compound, the behaviour observations (rats; 12 g/kg, at 2 and 8 h following administration, some of the rats, normalized at 10 h) was “slightly reduced activity and a hunched posture”, the signs of toxicity (rats; 10 h following administration, any of the doses) was “No signs of toxicity or deviation from normal behavior” and the behaviour observations (rats; lower doses (1.3 g/kg and 4.1 g/kg), all time points) was “normal behavior was observed at all time points”. The overall tolerability (rats; rats, oral, up to 12 g/kg) was “well tolerated”.
